# Test system: SYO-1 complex spheroid growth, percent test/control
# Assay: Anticancer human tumor SYO-1 cell line growth inhibition [Asc];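 also: compound exposure lasted 7 days after spheroids grew 3 days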;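 as to viability, T/C: 100% = DMSO vehicle control viability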
# Conditions: for IC50: curve of first compound; for viability, T/C: stronger effect = lower value
# In short: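 Tumor cells were grown as complex spheroids with human endothelial cells (HUVEC) and human mesenchymal stem cells as stroma. Agents were tested alone and in combination, in half-log steps down from the clinical Cmax, or from 10 microM where Cmax was unknown.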
# [1] = second compound 0.0316 µM, first compound 0.00316 µM
# [2] = second compound 0.0316 µM, first compound 0.01 µM
# [3] = second compound 0.0316 µM, first compound 0.0316 µM
# [4] = second compound 0.0316 µM, first compound 0.1 µM
# [5] = second compound 0.1 µM, first compound 0.00316 µM
# [6] = second compound 0.1 µM, first compound 0.01 µM
# [7] = second compound 0.1 µM, first compound 0.0316 µM
# [8] = second compound 0.1 µM, first compound 0.1 µM
# [9] = second compound 0.316 µM, first compound 0.00316 µM
# [10] = second compound 0.316 µM, first compound 0.01 µM
# [11] = second compound 0.316 µM, first compound 0.0316 µM
# [12] = second compound 0.316 µM, first compound 0.1 µM
# [13] = second compound 1 µM, first compound 0.00316 µM
# [14] = second compound 1 µM, first compound 0.01 µM
# [15] = second compound 1 µM, first compound 0.0316 µM
# [16] = second compound 1 µM, first compound 0.1 µM
# [17] = second compound 3.16 µM, first compound 0.00316 µM
# [18] = second compound 3.16 µM, first compound 0.01 µM
# [19] = second compound 3.16 µM, first compound 0.0316 µM
# [20] = second compound 3.16 µM, first compound 0.1 µM
# [21] = second compound 10 µM, first compound 0.00316 µM
# [22] = second compound 10 µM, first compound 0.01 µM
# [23] = second compound 10 µM, first compound 0.0316 µM
# [24] = second compound 10 µM, first compound 0.1 µM
structure (smiles),measurement,setting,value
COc1c(OCCCN2CCOCC2)ccc2c3n(c(=NC(=O)c4cnc(N)nc4)nc12)CCN3 + Cc1c(S(C)(=O)=O)c(-c2cc(F)cc(N3CCN(c4ccc(NS(=O)(=O)c5ccc(NC(CCN6CCC(C(=O)OCCCP(=O)(O)O)CC6)CSc6ccccc6)c(S(=O)(=O)C(F)(F)F)c5)cc4)CC3)c2)c(-c2ccc(Cl)cc2)n1C(C)C,IC50,second compound 0.0316 µM,652 nM
same,IC50,second compound 0.1 µM,596 nM
same,IC50,second compound 0.316 µM,509 nM
same,IC50,second compound 1 µM,452 nM
same,IC50,second compound 3.16 µM,300 nM
same,IC50,second compound 10 µM,194 nM
same,"viability, T/C",[1],104%
same,"viability, T/C",[2],93.8%
same,"viability, T/C",[3],93.5%
same,"viability, T/C",[4],83.1%
same,"viability, T/C","second compound 0.0316 µM, first compound 0.316 µM",74.6%
same,"viability, T/C","second compound 0.0316 µM, first compound 1 µM",36.4%
same,"viability, T/C",[5],99.2%
same,"viability, T/C",[6],97%
same,"viability, T/C",[7],91.8%
same,"viability, T/C",[8],80.3%
same,"viability, T/C","second compound 0.1 µM, first compound 0.316 µM",69.5%
same,"viability, T/C","second compound 0.1 µM, first compound 1 µM",35.6%
same,"viability, T/C",[9],90.7%
same,"viability, T/C",[10],98.3%
same,"viability, T/C",[11],94.1%
same,"viability, T/C",[12],82.4%
same,"viability, T/C","second compound 0.316 µM, first compound 0.316 µM",65.8%
same,"viability, T/C","second compound 0.316 µM, first compound 1 µM",28.5%
same,"viability, T/C",[13],91.5%
same,"viability, T/C",[14],100%
same,"viability, T/C",[15],94.7%
same,"viability, T/C",[16],87.5%
same,"viability, T/C","second compound 1 µM, first compound 0.316 µM",63.4%
same,"viability, T/C","second compound 1 µM, first compound 1 µM",20.5%
same,"viability, T/C",[17],92.5%
same,"viability, T/C",[18],91.1%
same,"viability, T/C",[19],92.3%
same,"viability, T/C",[20],78.1%
same,"viability, T/C","second compound 3.16 µM, first compound 0.316 µM",49%
same,"viability, T/C","second compound 3.16 µM, first compound 1 µM",11.6%
same,"viability, T/C",[21],83.2%
same,"viability, T/C",[22],88.7%
same,"viability, T/C",[23],72.3%
same,"viability, T/C",[24],62%
same,"viability, T/C","second compound 10 µM, first compound 0.316 µM",41.7%
same,"viability, T/C","second compound 10 µM, first compound 1 µM",6.85%
NC(=O)C(=Cn1cnc(-c2cc(C(F)(F)F)cc(C(F)(F)F)c2)n1)c1cncnc1 + Cc1c(S(C)(=O)=O)c(-c2cc(F)cc(N3CCN(c4ccc(NS(=O)(=O)c5ccc(NC(CCN6CCC(C(=O)OCCCP(=O)(O)O)CC6)CSc6ccccc6)c(S(=O)(=O)C(F)(F)F)c5)cc4)CC3)c2)c(-c2ccc(Cl)cc2)n1C(C)C,IC50,second compound 0.0316 µM,170 nM
same,IC50,second compound 0.1 µM,165 nM
same,IC50,second compound 0.316 µM,159 nM
same,IC50,second compound 1 µM,155 nM
same,IC50,second compound 3.16 µM,148 nM
same,IC50,second compound 10 µM,110 nM
same,"viability, T/C","second compound 0.0316 µM, first compound 0.000949 µM",98.1%
same,"viability, T/C","second compound 0.0316 µM, first compound 0.003 µM",102%
same,"viability, T/C","second compound 0.0316 µM, first compound 0.00949 µM",86.8%
same,"viability, T/C","second compound 0.0316 µM, first compound 0.03 µM",93.8%
same,"viability, T/C","second compound 0.0316 µM, first compound 0.0949 µM",96.3%
same,"viability, T/C","second compound 0.0316 µM, first compound 0.3 µM",5.53%
same,"viability, T/C","second compound 0.1 µM, first compound 0.000949 µM",97.6%
same,"viability, T/C","second compound 0.1 µM, first compound 0.003 µM",94%
same,"viability, T/C","second compound 0.1 µM, first compound 0.00949 µM",89.9%
same,"viability, T/C","second compound 0.1 µM, first compound 0.03 µM",93.9%
same,"viability, T/C","second compound 0.1 µM, first compound 0.0949 µM",95.7%
same,"viability, T/C","second compound 0.1 µM, first compound 0.3 µM",2.56%
same,"viability, T/C","second compound 0.316 µM, first compound 0.000949 µM",95%
same,"viability, T/C","second compound 0.316 µM, first compound 0.003 µM",94.8%
same,"viability, T/C","second compound 0.316 µM, first compound 0.00949 µM",92.9%
same,"viability, T/C","second compound 0.316 µM, first compound 0.03 µM",92.8%
same,"viability, T/C","second compound 0.316 µM, first compound 0.0949 µM",89.1%
same,"viability, T/C","second compound 0.316 µM, first compound 0.3 µM",1.51%
same,"viability, T/C","second compound 1 µM, first compound 0.000949 µM",101%
same,"viability, T/C","second compound 1 µM, first compound 0.003 µM",91.2%
same,"viability, T/C","second compound 1 µM, first compound 0.00949 µM",86%
same,"viability, T/C","second compound 1 µM, first compound 0.03 µM",90.8%
same,"viability, T/C","second compound 1 µM, first compound 0.0949 µM",86.5%
same,"viability, T/C","second compound 1 µM, first compound 0.3 µM",0.55%
same,"viability, T/C","second compound 3.16 µM, first compound 0.000949 µM",91.2%
same,"viability, T/C","second compound 3.16 µM, first compound 0.003 µM",87.3%
same,"viability, T/C","second compound 3.16 µM, first compound 0.00949 µM",84%
same,"viability, T/C","second compound 3.16 µM, first compound 0.03 µM",86.3%
same,"viability, T/C","second compound 3.16 µM, first compound 0.0949 µM",81.3%
same,"viability, T/C","second compound 3.16 µM, first compound 0.3 µM",0.31%
same,"viability, T/C","second compound 10 µM, first compound 0.000949 µM",89%
same,"viability, T/C","second compound 10 µM, first compound 0.003 µM",76.8%
same,"viability, T/C","second compound 10 µM, first compound 0.00949 µM",75.6%
same,"viability, T/C","second compound 10 µM, first compound 0.03 µM",67.2%
same,"viability, T/C","second compound 10 µM, first compound 0.0949 µM",61.6%
same,"viability, T/C","second compound 10 µM, first compound 0.3 µM",0.38%
NC1CCC(NC2CC2c2ccccc2)CC1 (stereo unspecified) + Cc1c(S(C)(=O)=O)c(-c2cc(F)cc(N3CCN(c4ccc(NS(=O)(=O)c5ccc(NC(CCN6CCC(C(=O)OCCCP(=O)(O)O)CC6)CSc6ccccc6)c(S(=O)(=O)C(F)(F)F)c5)cc4)CC3)c2)c(-c2ccc(Cl)cc2)n1C(C)C,IC50,second compound 0.0316 µM,> 100 nM
same,IC50,second compound 0.1 µM,> 100 nM
same,IC50,second compound 0.316 µM,> 100 nM
same,IC50,second compound 1 µM,> 100 nM
same,IC50,second compound 3.16 µM,> 100 nM
same,IC50,second compound 10 µM,> 100 nM
same,"viability, T/C","second compound 0.0316 µM, first compound 0.000316 µM",100%
same,"viability, T/C","second compound 0.0316 µM, first compound 0.001 µM",92.1%
same,"viability, T/C",[1],90.5%
same,"viability, T/C",[2],84.8%
same,"viability, T/C",[3],86.9%
same,"viability, T/C",[4],89%
same,"viability, T/C","second compound 0.1 µM, first compound 0.000316 µM",96.5%
same,"viability, T/C","second compound 0.1 µM, first compound 0.001 µM",92.7%
same,"viability, T/C",[5],86.3%
same,"viability, T/C",[6],87.1%
same,"viability, T/C",[7],91.8%
same,"viability, T/C",[8],86.5%
same,"viability, T/C","second compound 0.316 µM, first compound 0.000316 µM",105%
same,"viability, T/C","second compound 0.316 µM, first compound 0.001 µM",91.8%
same,"viability, T/C",[9],87.9%
same,"viability, T/C",[10],91.7%
same,"viability, T/C",[11],89.1%
same,"viability, T/C",[12],86.9%
same,"viability, T/C","second compound 1 µM, first compound 0.000316 µM",92.2%
same,"viability, T/C","second compound 1 µM, first compound 0.001 µM",88.5%
same,"viability, T/C",[13],96.9%
same,"viability, T/C",[14],92.3%
same,"viability, T/C",[15],90.6%
same,"viability, T/C",[16],85.8%
same,"viability, T/C","second compound 3.16 µM, first compound 0.000316 µM",91.3%
same,"viability, T/C","second compound 3.16 µM, first compound 0.001 µM",85.3%
same,"viability, T/C",[17],88.7%
same,"viability, T/C",[18],85.8%
same,"viability, T/C",[19],79.8%
same,"viability, T/C",[20],87.2%
same,"viability, T/C","second compound 10 µM, first compound 0.000316 µM",85.7%
same,"viability, T/C","second compound 10 µM, first compound 0.001 µM",85.4%
same,"viability, T/C",[21],80.5%
same,"viability, T/C",[22],82.4%
same,"viability, T/C",[23],83.3%
same,"viability, T/C",[24],79.7%
